Experimental data reported in PubChem BioAssay (NCI).
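Following 48 hours of exposure in 96-well plates, responses at five concentrations were used to interpolate endpoints linearly. TGI marks complete inhibition of growth.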

Tests used:
Test in all cases: inhibition of tumour cell growth, NCI panel, 48 h
OVCAR-8 ovarian = system: OVCAR-8 ovarian
MOLT-4 leukemia = system: MOLT-4 leukemia
HCT-15 colon = system: HCT-15 colon
UACC-257 melanoma = system: UACC-257 melanoma
NCI-H460 lung = system: NCI-H460 lung
NCI-H226 lung = system: NCI-H226 lung
SNB-75 CNS = system: SNB-75 CNS
M14 melanoma = system: M14 melanoma
SK-MEL-28 melanoma = system: SK-MEL-28 melanoma
A498 renal = system: A498 renal
PC-3 prostate = system: PC-3 prostate
SF-539 CNS = system: SF-539 CNS
HCC-2998 colon = system: HCC-2998 colon
OVCAR-5 ovarian = system: OVCAR-5 ovarian
SW-620 colon = system: SW-620 colon
HOP-92 NSCLC = system: HOP-92 NSCLC
COLO 205 colon = system: COLO 205 colon
HL-60(TB) leukemia = system: HL-60(TB) leukemia
HCT-116 colon = system: HCT-116 colon
MCF7 breast = system: MCF7 breast
CAKI-1 renal = system: CAKI-1 renal
IGROV1 ovarian = system: IGROV1 ovarian
OVCAR-4 ovarian = system: OVCAR-4 ovarian
HT29 colon = system: HT29 colon
NCI-H522 lung = system: NCI-H522 lung
K-562 leukemia = system: K-562 leukemia
HS 578T breast = system: HS 578T breast
T-47D breast = system: T-47D breast
TK-10 renal = system: TK-10 renal
A549 NSCLC = system: A549 NSCLC
OVCAR-3 ovarian = system: OVCAR-3 ovarian
EKVX NSCLC = system: EKVX NSCLC
ACHN renal = system: ACHN renal
SF-268 CNS = system: SF-268 CNS
BT-549 breast = system: BT-549 breast
UO-31 renal = system: UO-31 renal
KM12 colon = system: KM12 colon
NCI/ADR-RES ovarian = system: NCI/ADR-RES ovarian
SK-OV-3 ovarian = system: SK-OV-3 ovarian
LOX IMVI melanoma = system: LOX IMVI melanoma
786-0 renal = system: 786-0 renal
UACC-62 melanoma = system: UACC-62 melanoma
DU-145 prostate = system: DU-145 prostate
SN12C renal = system: SN12C renal
SR leukemia = system: SR leukemia
SK-MEL-5 melanoma = system: SK-MEL-5 melanoma
HOP-62 NSCLC = system: HOP-62 NSCLC
MDA-MB-435 = system: MDA-MB-435
SF-295 CNS = system: SF-295 CNS
RPMI-8226 leukemia = system: RPMI-8226 leukemia
SK-MEL-2 melanoma = system: SK-MEL-2 melanoma
SNB-19 CNS = system: SNB-19 CNS
U251 CNS = system: U251 CNS
MDA-MB-231 breast = system: MDA-MB-231 breast

Measured: TGI

COC(=O)CN(CC1O[C@@H]2OC(C)(C)O[C@@H]2C1N=[N+]=[N-])C(=O)OCc1ccccc1 (some centres undefined)
> 100 µM: all assays above
